Several values for one entry are separate records, joined by “and”; a condition that tells them apart may be missing. Equal entries are not always repeated. Where a SMILES comes first, the peptide text is derived from it. [ ]: non-standard residue; d: D form. Hyp = O=C(O)[C@@H]1C[C@@H](O)CN1
Tested on: Leptin
Test: Example 8 main study Luminex, LPS hPBMCs: Leptin
Assay type: cell-based, human
Method: Human PBMCs were pretreated with YY-101, YDE-011, YDE-043 or reference compound; Xiidra® at various concentration (ranging from […] to 500 nM) for 2 h before stimulation. An equal volume of 0.5% DMSO was used as a vehicle control. Then, the cells were treated with LPS at 5 ug/ml, which was selected based on the pilot study. The supernatants from treated cells were harvested at 24 h and placed in a 96 well for Luminex cytokine & chemokine profiling using a Luminex 200 multiplex assay (Luminex; R&D system, USA).
The main study arm with triplicate wells per group in a 24-well plate: • 1. Blank • 2. PBMC: 0.5% DMSO • 3. PBMC+LPS (5 ug/ml) • 4. PBMC+YY-101 500 nM • 5. PBMC+YY-101 50 nM • 6. PBMC+YY-101 5 nM • 7. PBMC+YY-101 0.5 nM • 8. PBMC+LPS (5 ug/ml)+Xiidra® 500 nM • 9. PBMC+LPS (5 ug/ml)+Xiidra® 50 nM • 10. PBMC+LPS (5 ug/ml)+Xiidra® 5 nM • 11. PBMC+LPS (5 ug/ml)+Xiidra® 0.5 nM • 12. PBMC+LPS (5 ug/ml)+Xiidra® 0.05 nM • 13. PBMC+LPS (5 ug/ml)+Xiidra® 0.005 nM • 14. PBMC+LPS (5 ug/ml)+YY-101 500 nM • 15. PBMC+LPS (5 ug/ml)+YY-101 50 nM • 16. PBMC+LPS (5 ug/ml)+YY-101 5 nM • 17. PBMC+LPS (5 ug/ml)+YY-101 0.5 nM • 18. PBMC+LPS (5 ug/ml)+YY-101 0.05 nM • 19. PBMC+LPS (5 ug/ml)+YY-101 0.005 nM • 20. PBMC+LPS (5 ug/ml)+YDE-011 500 nM • 21. PBMC+LPS (5 ug/ml)+YDE-011 50 nM • 22. PBMC+LPS (5 ug/ml)+YDE-011 5 nM • 23. PBMC+LPS (5 ug/ml)+YDE-011 0.5 nM • 24. PBMC+LPS (5 ug/ml)+YDE-011 0.05 nM • 25. PBMC+LPS (5 ug/ml)+YDE-011 0.005 nM • 26. PBMC+LPS (5 ug/ml)+YDE-043 500 nM • 27. PBMC+LPS (5 ug/ml)+YDE-043 50 nM • 28. PBMC+LPS (5 ug/ml)+YDE-043 5 nM • 29. PBMC+LPS (5 ug/ml)+YDE-043 0.5 nM • 30. PBMC+LPS (5 ug/ml)+YDE-043 0.05 nM • 31. PBMC+LPS (5 ug/ml)+YDE-043 0.005 nM
Multiplex assay was used to measure 30 cytokines and chemokines. The 1:200 diluted cell supernatant and serial dilution of the standard were dispensed into a 96 well plate at 50 ul/well. Then, the pre-mixed cocktail of antibody-coated magnetic beads was dispensed at 50 ul/well and incubated at room temperature for 2 h in a horizontal orbital microplate shaker at 800±500 rpm. The beads were washed using a magnetic device to prevent loss. The biotin-antibody was dispensed in 50 ul of each well and incubated at room temperature for 1 h in a shaker at 800±500 rpm. After washing, streptavidin-PE was added at 50 ul/well and incubated at room temperature for 30 min in a shaker under the same conditions. Finally, after washing, wash buffer (100 ul/well) was added to the plate and incubated in a shaker for 2 min. The Luminex™ 200 setting were set according to the manufacturer's protocol. The data was calculated with a standard five-parameter logistic nonlinear regression analysis of the data (xPonent software 4.2, USA). Results were presented as concentration (ng/ml or pg/ml).

[1] = PBMC + LPS(5 ug/ml), test article 0.005 nM
[2] = PBMC + LPS(5 ug/ml), test article 0.05 nM
[3] = PBMC + LPS(5 ug/ml), test article 0.5 nM
[4] = PBMC + LPS(5 ug/ml), test article 5 nM
[5] = PBMC + LPS(5 ug/ml), test article 50 nM
[6] = PBMC + LPS(5 ug/ml), test article 500 nM
[7] = PBMC without LPS, test article 0.5 nM
[8] = PBMC without LPS, test article 5 nM
[9] = PBMC without LPS, test article 0.05 uM
[10] = PBMC without LPS, test article 50 nM
[11] = PBMC without LPS, test article 500 nM

Compound | Leptin Concentration (pg/ml), Mean [1] [pg/mL] | Leptin Concentration (pg/ml), single replicates [1] | Leptin Concentration (pg/ml), Mean [2] [pg/mL] | Leptin Concentration (pg/ml), single replicates [2] | Leptin Concentration (pg/ml), Mean [3] [pg/mL] | Leptin Concentration (pg/ml), single replicates [3] | Leptin Concentration (pg/ml), Mean [4] [pg/mL] | Leptin Concentration (pg/ml), single replicates [4] | Leptin Concentration (pg/ml), Mean [5] [pg/mL] | Leptin Concentration (pg/ml), single replicates [5] | Leptin Concentration (pg/ml), Mean [6] [pg/mL] | Leptin Concentration (pg/ml), single replicates [6] | further results
CC(C)C[C@H](NC(=O)CNC(=O)[C@H](CC(C)C)NC(=O)[C@H](CCC(N)=O)NC(=O)CNC(=O)[C@@H]1C[C@@H](O)CN1)C(=O)N[C@@H](C)C(=O)NCC(=O)N1CCC[C@H]1C(=O)N[C@@H](CCCCN)C(=O)O [YDE-011] (H-[Hyp]GQLGLAGPK-OH) | 14975.6 | 17222.7 pg/ml (2×) and 10481.4 pg/ml | 14835.2 | 19789.4 pg/mL and 10481.4 pg/mL and 14234.9 pg/mL | 9683.0 | 10481.4 pg/mL and 4332.6 pg/mL and 14234.9 pg/mL | 10777.7 | <98.95 pg/mL and 4332.6 pg/mL and 17222.7 pg/mL | 12358.1 | 10481.4 pg/mL and 14234.9 pg/mL and <98.95 pg/mL | 13896.3 | 19789.4 pg/mL and <98.95 pg/mL and 8003.2 pg/mL | 
CC(C)C[C@H](NC(=O)CNC(=O)[C@H](CC(=O)O)NC(=O)[C@H](CCC(N)=O)NC(=O)CNC(=O)[C@@H]1C[C@@H](O)CN1)C(=O)N[C@@H](C)C(=O)NCC(=O)N1CCC[C@H]1C(=O)N[C@@H](CCCCN)C(=O)O [YY-101] (H-[Hyp]GQDGLAGPK-OH; N-terminus and C-terminus assumed) | 16686.7 | 19789.4 pg/ml (2×) and 10481.4 pg/ml | 16746.9 | 17222.7 pg/ml (2×) and 15795.3 pg/ml | 16226.8 | 17222.7 pg/ml (2×) and 14234.9 pg/ml | 21157.1 | 22079.2 pg/mL and 17222.7 pg/mL and 24169.3 pg/mL | 15230.8 | 17222.7 pg/ml and 14234.9 pg/ml (2×) | 18933.8 | 19789.4 pg/ml (2×) and 17222.7 pg/ml | Leptin Concentration (pg/ml), Mean [7]: 15728.8 pg/mL; Leptin Concentration (pg/ml), single replicates [7]: 14234.9 pg/mL and 17222.7 pg/mL; Leptin Concentration (pg/ml), Mean [8]: 19092.9 pg/mL; Leptin Concentration (pg/ml), single replicates [8]: 17222.7 pg/mL and 20963.1 pg/mL; Leptin Concentration (pg/ml), Mean [9]: 18506.0 pg/mL; Leptin Concentration (pg/ml), single replicates [9]: 19789.4 pg/mL and 17222.7 pg/mL; Leptin Concentration (pg/ml), Mean [10]: 24092.8 pg/mL; Leptin Concentration (pg/ml), single replicates [10]: 26106.3 pg/mL and 22079.2 pg/mL; Leptin Concentration (pg/ml), Mean [11]: 20376.3 pg/mL; Leptin Concentration (pg/ml), single replicates [11]: 19789.4 pg/mL and 20963.1 pg/mL
CC(C)C[C@H](NC(=O)[C@H](CCC(N)=O)NC(=O)CNC(=O)[C@@H]1C[C@@H](O)CN1)C(=O)NCC(=O)O [YDE-043] (H-[Hyp]GQLG-OH; N-terminus and C-terminus assumed) | 19724.6 | 18547.4 pg/ml (2×) and 22079.2 pg/ml | 10481.4 | 10481.4 pg/ml and <98.95 pg/ml (2×) | 15646.1 | 12493.0 pg/ml and 17222.7 pg/ml (2×) | 15505.7 | 19789.4 pg/mL and 12493.0 pg/mL and 14234.9 pg/mL | 18458.0 | 15795.3 pg/ml and 19789.4 pg/ml (2×) | 10678.9 | 17222.7 pg/mL and 4332.6 pg/mL and 10481.4 pg/mL | 
